Laboratory results published in patent EP1388013B1, “COMPOSITIONS AND METHODS FOR THE USE OF FIBRONECTIN FRAGMENTS IN THE DIAGNOSIS OF CANCER” (THE REGENTS OF THE UNIVERSITY OF MICHIGAN, priority 2001, dated 2002).
No end group written: not given here.

Columns and labels:
Format in all cases: cell-based
[1] = test system: normal human mammary epithelial cells; experiment: SU-ECM invasion assay, normal mammary epithelial cells; settings: SU-ECM, serum containing environment; Figure 12
Experimental: (§1) Adult Strongylocentrotus purpuratus sea urchins were obtained from Pacific BioMarine, and their embryos were cultured to the early pluteus stage in artificial sea water at 15°C. SU-ECM were prepared from them by treatment with nonionic detergent and sterilized by dilution in the appropriate media.
(§2) […] When appropriate, purified bovine plasma fibronectin (Sigma, St. Louis, Mo), purified 120 kDa chymotryptic fragment (Gibco BRL), PHSRN or PHSCN peptides (synthesized at the Biomedical Research Core Facilities of the University of Michigan), or GRGDSP or GRGESP peptides (Gibco BRL) were added to the resuspended cells prior to placement of the cells on SU-ECM. In each well of a plate used for an invasion assay, SU-ECM were placed in 0.5 ml of the appropriate medium, and 0.5ml of the resuspended cells dropped on their exterior surfaces. Invasion assays were incubated 1 to 16 hours prior to scoring. If some circumstances, invasion assays were fixed in phosphate-buffered saline (PBS) with 2% formaldehyde for 5 minutes at room temperature, then rinsed into PBS.
(§3) Invasion assays were coded and scored blindly by microscopic examination under phase contrast at 200- and 400-fold magnification. Each cell contacting an SU-ECM was scored for its position relative to the exterior or interior surfaces. A cell was judged to have invaded if it was located on an interior surface below the focal plane passing through the upper surface of the SU-ECM, but above the focal plane passing through its lower surface. The minimum viability of the cells in each assay was always ascertained at the time of assay by determining the fraction of spread, adherent cells on the bottom of each well scored.
(§4) An invasion frequency is defined as the fraction of cells in contact with basement membranes which were located in their interiors at the time of assay. […] Invasion frequencies were determined multiple times for each cell type assayed. For each type of cell assayed the mean and standard deviation of the invasion frequencies were calculated. […]

[2] = test system: normal human prostate epithelial cells; experiment: SU-ECM invasion assay, normal prostate epithelial cells; settings: SU-ECM, serum containing environment; Figure 12
Experimental: as §1, §2, §3, §4

[3] = test system: Normal neonatal keratinocytes; experiment: SU-ECM invasion assay, keratinocytes; settings: in the presence of serum, Figure 11
Excerpt: (§5) In one example cells for the invasion assay are harvested by rinsing in Hanks' balanced salt solution, followed by brief treatment with 0.25% trypsin, 0.02% EDTA, and pelleting and resuspension in the appropriate medium with or without 5% FCS at a density of about 50,000 cells per ml. When appropriate, purified bovine plasma fibronectin (from Sigma, St. Louis, Mo), purified 120 kDa chymotryptic fragment (Gibco BRL) or PHSRN peptides (synthesized at the Biomedical Research Core Facilities of the University of Michigan) are added to the resuspended cells prior to placement of the cells on SU-ECM. […]
(§6) Invasion assays are coded and scored blindly by microscopic examination under phase contrast at 200- and 400-fold magnification. Each cell contacting an SU-ECM is scored for its position relative to the exterior or interior surfaces. […] The minimum viability of the cells in each assay is always ascertained at the time of assay by determining the fraction of spread, adherent cells on the bottom of each well scored.
as §4, with “membranes which are located in” for “membranes which were located in”, “Invasion frequencies are determined multiple” for “Invasion frequencies were determined multiple”

[4] = test system: Mouse muscle satellite cells; experiment: SU-ECM invasion assay, muscle satellite cells; settings: 1 microgram per ml, presence or absence of serum; Figure 13
Excerpt: as §5, §6
as §4, with “membranes which are located in” for “membranes which were located in”, “Invasion frequencies are determined multiple” for “Invasion frequencies were determined multiple”

Substance: PHSRN [PHSRN]
- induction of invasive behavior of human mammary epithelial cells [1]: induces the invasive behaviors
- induction of invasive behavior of human prostate epithelial cells [2]: induces the invasive behaviors
- maximal invasion percentages for keratinocytes [3]: about 20%
- induction of SU-ECM invasion by muscle satellite cells [4]: induced the invasion
